Measured values from US20230348475A1, “IMIDAZOPYRIDAZINE AND IMIDAZOPYRAZINE COMPOUNDS AS INHIBITORS OF CDK7” (THE TRANSLATIONAL GENOMICS RESEARCH INSTITUTE, priority 2020, published 2023).
Where a name gives a salt, the structure may show the parent alone.

Experiments:
[1] = tested on: MDA-MB-231 breast cancer cell line; assay: Cell viability assay (Cell Titer Glo), MDA-MB-231; type: cell-based; details: Table 7a, breast cancer cell line, 72 hour incubation
Experimental: (§1) Materials: • Cell Lines (Treated according to ATCC guidelines) • Cell Titer Glo (Promega Cat #G7572) • DMSO • 96-well White Tissue Culture Treated Plates (Perkin Elmer Cat #60005680)
(§2) Cells were seeded in a white 96-well tissue culture treated plate at a density of 1500 cells in 90 μL of media per well and allowed to settle overnight. A ten point serial dilution of drugs was prepared at 10×concentration in media with the final assay concentrations starting at 30 μM, 10 μM, 3 μM, 1 μM, 0.3 μM . . . 0 μM. A dilution of DMSO was included as a control. The assay was set up by adding 10 μL of the corresponding drug to each well in duplicate, followed by a 72 hour incubation at 37° C., 5% CO2. Cell viability was quantified by adding 90 μL of Cell Titer Glo to each well and incubating at room temperature for 10 minutes. The reaction was quantified by measuring luminescence using the Envision Plate Reader. Data was analyzed using Graphpad Prism 7 software.

[2] = tested on: A2780 ovarian cancer cell line; assay: Cell viability assay (Cell Titer Glo), A2780; type: cell-based; details: 72 hour incubation
Experimental: as §1, §2

[3] = tested on: HPAC pancreatic cancer cell line; assay: Cell viability assay (Cell Titer Glo), HPAC; type: cell-based; details: Table 7a, pancreatic cancer cell line, 72 hour incubation
Experimental: as §1, §2

[4] = molecular target: CDK7/CycH/MAT1 (Homo sapiens, UniProt P50613); assay: Kinase Glo (ADP-Glo) biochemical assay, CDK7; details: CDK7/CycH/MAT1 40 ng, ATP 1 μM, 60 minutes at RT, luminescence
Sequence of CDK7/CycH/MAT1 (P50613 whole entry): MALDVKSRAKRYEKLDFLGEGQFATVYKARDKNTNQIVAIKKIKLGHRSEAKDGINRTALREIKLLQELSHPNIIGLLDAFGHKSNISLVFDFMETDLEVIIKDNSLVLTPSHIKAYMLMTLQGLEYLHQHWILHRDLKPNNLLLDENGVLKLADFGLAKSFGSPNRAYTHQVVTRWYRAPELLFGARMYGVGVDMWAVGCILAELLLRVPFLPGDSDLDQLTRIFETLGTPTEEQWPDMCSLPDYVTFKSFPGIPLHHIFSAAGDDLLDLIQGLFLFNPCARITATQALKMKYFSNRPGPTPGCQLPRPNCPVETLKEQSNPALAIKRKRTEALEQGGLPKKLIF
Sequence of CDK7/CycH/MAT1 (P51946 whole entry partner): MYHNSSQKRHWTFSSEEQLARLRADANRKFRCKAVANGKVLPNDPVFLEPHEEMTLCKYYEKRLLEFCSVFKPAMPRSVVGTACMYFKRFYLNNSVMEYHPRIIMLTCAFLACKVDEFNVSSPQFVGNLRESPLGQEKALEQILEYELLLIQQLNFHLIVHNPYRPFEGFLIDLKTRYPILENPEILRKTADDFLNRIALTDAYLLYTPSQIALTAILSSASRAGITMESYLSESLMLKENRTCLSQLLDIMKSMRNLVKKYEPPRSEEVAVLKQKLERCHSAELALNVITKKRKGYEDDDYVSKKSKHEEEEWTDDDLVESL
Sequence of CDK7/CycH/MAT1 (P51948 whole entry partner): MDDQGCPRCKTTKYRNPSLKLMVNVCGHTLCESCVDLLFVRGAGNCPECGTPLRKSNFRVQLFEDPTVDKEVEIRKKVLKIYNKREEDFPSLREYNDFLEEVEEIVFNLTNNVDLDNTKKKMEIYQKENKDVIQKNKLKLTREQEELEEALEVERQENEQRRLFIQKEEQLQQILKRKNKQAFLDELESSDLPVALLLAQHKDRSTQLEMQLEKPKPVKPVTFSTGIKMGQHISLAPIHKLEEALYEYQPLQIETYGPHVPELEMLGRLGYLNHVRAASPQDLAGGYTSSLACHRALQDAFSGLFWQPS
Experimental: Materials: • Assay Buffer: 50 mM HEPES, 3 mM MgCl2, 3 mM MnCl2, 1 mM DTT, 3 μM Na3VO4, pH 7.5 • Substrate RB • CTF Peptide (ProQinase #: 0040-0000-6) • Enzymes • CDK7/CycH/MAT1 (ProQinase #: 0366-0360-4) • ADP-Glo™ Assay (Promega #: V9101) • ATP: 10 mM • ADP-Glo™ Reagent • Kinase Detection Reagent • 384-well white assay plates
A ten point serial dilution of compound was prepared at 5X concentration in assay buffer with the final assay concentrations starting at 30 μM, 10 μM, 3 μM, 1 μM . . . 0 μM. Enzyme, substrate, and ATP were used at 40 ng, 200 ng (or 400 ng)* and 1 μM, respectively. The assay plate was set up by mixing the components in a total reaction volume of 10 μL per well. The plate was centrifuged gently for 10 seconds and incubated at room temperature (RT) for 60 minutes in the dark. The ADP-Glo Reagent and kinase detection reagent were added and incubated as recommended. The reaction was quantified by measuring luminescence on the Perkin Elmer Envision plate reader.

[5] = tested on: A673 Ewingsarcoma cell line; assay: Cell viability assay (Cell Titer Glo), A673; type: cell-based; details: 72 hour incubation
Experimental: as §1, §2

[6] = tested on: Kasumi1 leukemia cancer cell line; assay: Cell viability assay (Cell Titer Glo), Kasumi1; type: cell-based; details: 72 hour incubation
Experimental: as §1, §2

[7] = tested on: MiaPaCa2 pancreatic cancer cell line; assay: Cell viability assay (Cell Titer Glo), MiaPaCa2; type: cell-based; details: Table 7a, pancreatic cancer cell line, 72 hour incubation
Experimental: as §1, §2

[8] = Homo sapiens, Kasumi 1, Table 7a

| Structure (SMILES) | IC50 ([1]; Homo sapiens, MDA-MB-231) [µM] | IC50 ([2]; Homo sapiens, A2780, Table 7a) [µM] | IC50 ([3]; Homo sapiens, HPAC) [µM] | IC50 [4] [nM] | IC50 ([5]; Homo sapiens, A673, Table 7a) [µM] | IC50 [6, 8] [µM] | IC50 ([7]; Homo sapiens, MIA PaCa-2) [µM] | IC50 [1] [µM] | IC50 ([2]; Table 7a) [µM] | IC50 [3] [µM] | IC50 ([5]; Table 7a) [µM] | IC50 ([6]; Table 7a) [µM] | IC50 [7] [µM] |
| --- | --- | --- | --- | --- | --- | --- | --- | --- | --- | --- | --- | --- | --- |
| CC(C)c1cnc2c(N[C@@H](C)c3ccccc3)nc(SC3CCCNC3)cn12 (stereo partly drawn) [Compound 34, 3-isopropyl-N-((S)-1-phenylethyl)-6-(piperidin-3-ylthio)imidazo[1,2-α]pyrazin-8-amine hydrochloride] | > 5 | 1 to 5 | 1 to 5 | < 100 | > 5 | 1 to 5 | 1 to 5 |  |  |  |  |  |  |
| CC(C)c1cnc2c(NCc3ccccc3N(C)C)cc(SC3CCNCC3)nn12 [Compound 64, N-(2-(dimethylamino)benzyl)-3-isopropyl-6-(piperidin-4-ylthio)imidazo[1,2-b]pyridazin-8-amine hydrochloride] |  |  | 1 to 5 | < 100 | < 1 | < 1 | < 1 |  |  |  |  |  |  |
| COc1ccccc1CNc1cc(SC2CCCNC2)nn2c(C(C)C)cnc12 (stereo not drawn) [Compound 36, hydrochloride] | 1 to 5 | < 1 | 1 to 5 | < 100 | 1 to 5 | 1 to 5 | 1 to 5 |  |  |  |  |  |  |
| CC(C)c1cnc2c(NCc3ccccc3)nc(SC3CCCNC3)cn12 (stereo not drawn) [Compound 26, N-benzyl-3-isopropyl-6-(piperidin-3-ylthio)imidazo[1,2-α]pyrazin-8-amine formate salt] | > 5 | 1 to 5 | 1 to 5 | < 100 | 1 to 5 | 1 to 5 | > 5 |  |  |  |  |  |  |
| c1ccc(CNc2cc(SC3CCCNC3)nn3c(C4CC4)cnc23)cc1 (stereo not drawn) [Compound 23, N-benzyl-3-cyclopropyl-6-(piperidin-3-ylthio)imidazo[1,2-b]pyridazin-8-amine dihydrochloride salt] |  |  |  | < 100 |  |  |  | 1 to 5 | 1 to 5 | 1 to 5 | 1 to 5 | 1 to 5 | 1 to 5 |
| c1ccc(CNc2cc(SC3CCCNC3)nn3c(C4CC4)cnc23)cc1 (stereo not drawn) [Compound 22, N-benzyl-3-cyclopropyl-6-(piperidin-3-ylthio)imidazo[1,2-b]pyridazin-8-amine formate] | 1 to 5 | 1 to 5 | 1 to 5 | < 100 | 1 to 5 | 1 to 5 | 1 to 5 |  |  |  |  |  |  |
| CC(C)c1cnc2c(NCc3ccccc3-n3cccn3)cc(SC3CCNCC3)nn12 [Compound 62, N-(2-(1H-pyrazol-1-yl)benzyl)-3-isopropyl-6-(piperidin-4-ylthio)imidazo[1,2-b]pyridazin-8-amine hydrochloride] |  |  | 1 to 5 | < 100 | 1 to 5 | < 1 | < 1 |  |  |  |  |  |  |
| COc1ccccc1CNc1nc(SC2CCNCC2)cn2c(C(C)C)cnc12 [Compound 51, 3-isopropyl-N-(2-methoxybenzyl)-6-(piperidin-4-ylthio)imidazo[1,2-a]pyrazin-8-amine formate] | > 5 | 1 to 5 | 1 to 5 | < 100 |  |  | 1 to 5 |  |  |  |  |  |  |
| CC(C)c1cnc2c(NCc3ccccc3-n3cccn3)cc(SC3CCCNC3)nn12 (stereo not drawn) [Compound 63, N-(2-(1H-pyrazol-1-yl)benzyl)-3-isopropyl-6-(piperidin-3-ylthio)imidazo[1,2-b]pyridazin-8-amine hydrochloride] |  |  | < 1 | < 100 | 1 to 5 | < 1 | < 1 |  |  |  |  |  |  |
| CC(C)c1cnc2c(NCc3ccccc3C(F)(F)F)cc(SC3CCNCC3F)nn12 (stereo not drawn) [Compound 77, 6-((3-fluoropiperidin-4-yl)thio)-3-isopropyl-N-(2-(trifluoromethyl)benzyl)imidazo[1,2-b]pyridazin-8-amine hydrochloride] |  | 1 to 5 | 1 to 5 | < 100 |  | 1 to 5 | 1 to 5 |  |  |  |  |  |  |
| CC(C)c1cnc2c(NCc3ccccc3C(F)(F)F)cc(SC3CCNCC3)nn12 [Compound 53, 3-isopropyl-6-(piperidin-4-ylthio)-N-(2-(trifluoromethyl)benzyl)imidazo[1,2-b]pyridazin-8-amine hydrochloride] | 1 to 5 | < 1 | < 1 | < 100 |  |  | < 1 |  |  |  |  |  |  |
| CC(C)c1cnc2c(NCc3ccccc3OC(F)F)cc(SC3CCNCC3)nn12 [Compound 66, N-(2-(difluoromethoxy)benzyl)-3-isopropyl-6-(piperidin-4-ylthio)imidazo[1,2-b]pyridazin-8-amine hydrochloride] |  |  | < 1 | < 100 | < 1 | 1 to 5 | < 1 |  |  |  |  |  |  |

Now from value to molecule:

| IC50 ([1]; Homo sapiens, MDA-MB-231) [µM] | IC50 ([2]; Homo sapiens, A2780, Table 7a) [µM] | IC50 ([3]; Homo sapiens, HPAC) [µM] | IC50 [4] [nM] | IC50 ([5]; Homo sapiens, A673, Table 7a) [µM] | IC50 [6, 8] [µM] | IC50 ([7]; Homo sapiens, MIA PaCa-2) [µM] | IC50 [1] [µM] | IC50 ([2]; Table 7a) [µM] | IC50 [3] [µM] | IC50 ([5]; Table 7a) [µM] | IC50 ([6]; Table 7a) [µM] | IC50 [7] [µM] | Structure (SMILES) |
| --- | --- | --- | --- | --- | --- | --- | --- | --- | --- | --- | --- | --- | --- |
| 1 to 5 | 1 to 5 | 1 to 5 | < 100 | 1 to 5 | > 5 | 1 to 5 |  |  |  |  |  |  | CC(C)c1cnc2c(NCc3ccccc3OC(F)(F)F)cc(NC[C@H]3CNCCO3)nn12 [Compound 48, (R)-3-isopropyl-N6-(morpholin-2-ylmethyl)-N8-(2-(trifluoromethoxy)benzyl)imidazo[1,2-b]pyridazine-6,8-diamine hydrochloride] |
| 1 to 5 | < 1 | 1 to 5 | < 100 | 1 to 5 | 1 to 5 | 1 to 5 |  |  |  |  |  |  | CC(C)c1cnc2c(N[C@@H](C)c3ccccc3)cc(SC3CCNCC3)nn12 [Compound 24, (S)-3-isopropyl-N-(1-phenylethyl)-6-(piperidin-4-ylthio)imidazo[1,2-b]pyridazin-8-amine] |
| 1 to 5 | 1 to 5 | 1 to 5 | < 100 | 1 to 5 | > 5 | 1 to 5 |  |  |  |  |  |  | CC(C)c1cnc2c(NCc3ccccc3OC(F)(F)F)cc(NC[C@@H]3CNCCO3)nn12 [Compound 46, (S)-3-isopropyl-N6-(morpholin-2-ylmethyl)-N8-(2-(trifluoromethoxy)benzyl)imidazo[1,2-b]pyridazine-6,8-diamine hydrochloride] |
| 1 to 5 | 1 to 5 | 1 to 5 | < 100 | 1 to 5 |  | 1 to 5 |  |  |  |  |  |  | CC(C)c1cnc2c(NCc3ccccc3)cc(S[C@@H]3CCCNC3)nn12 (single isomer, unassigned) [Compound 41, hydrochloride] |
| 1 to 5 | 1 to 5 | 1 to 5 | < 100 | 1 to 5 | 1 to 5 | < 1 |  |  |  |  |  |  | CC(C)c1cnc2c(Nc3cccc(F)c3)cc(NC3CCNCC3)nn12 [Compound 45, N8-(3-fluorophenyl)-3-isopropyl-N6-(piperidin-4-yl)imidazo[1,2-b]pyridazine-6,8-diamine hydrochloride] |
| 1 to 5 | 1 to 5 | 1 to 5 | < 100 | 1 to 5 | > 5 | 1 to 5 |  |  |  |  |  |  | COc1ccccc1CNc1cc(NC2CCNCC2)nn2c(C(C)C)cnc12 [Compound 40, 3-isopropyl-N8-(2-methoxybenzyl)-N6-(piperidin-4-yl)imidazo[1,2-b]pyridazine-6,8-diamine hydrochloride] |
